The nature of this data set: recombinant barcode read abundance after kanamycin selection (control-corrected) (log10(CPM+1)); higher = more efficient recombination; sequences stand for … in AGTGCAGAGAAAATCGGCCAGTTTTCTCTGCCTGCAGTCCGCATGCCGT…AGATTTATGCAGCGGACTGCCTTTCTCCCAAAGTGATAAACCGGACAGTATCATGGACCGGTTTTCCCGGTAATCCGTATTTGCAAGGTTGGTTTCACT; site = the 11-nt target. In outline:
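Values are log10(CPM+1) from a pooled E. coli screen of targets paired with IS621 bridge RNA target-binding loops. Recombination efficiency here means counts per million of recombinant-junction barcodes, averaged and control-corrected. Plates were chloramphenicol/ampicillin LB agar for the control and chloramphenicol/ampicillin/kanamycin with 0.1 mM IPTG, two replicates each.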
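Also: IS621 recombinase and bridge RNA in Escherichia coli cells.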

With “CTAAATCCTTGGGTTCTAACCTGTTGCCT (site CTAAATCCTAG)”, the “recombinant barcode read abundance (log10)” value came to 0.303. Consider “CTAAATCCTTGGGTTCTAACCTGTTGCCT (site GTAAATCCTAG)”, for which the “recombinant barcode read abundance (log10)” value was found to be 0.0932.

On to “CTAAATCCTTGGGTTCTAACCTGTTGCCT (site TTAAATCCTAG)”, for which the “recombinant barcode read abundance (log10)” value was found to be 0.0182.

With “CTAACCGCTTGGGTTCTAACCTGTTGCCT (site CAAACCGCTAG)”, the “recombinant barcode read abundance (log10)” value came to 0.471. For “CTAACCGCTTGGGTTCTAACCTGTTGCCT (site CCAACCGCTAG)”, the “recombinant barcode read abundance (log10)” value was found to be 0.266. To “CTAACCGCTTGGGTTCTAACCTGTTGCCT (site CGAACCGCTAG)” belongs 0.0568; to “CTAACCGCTTGGGTTCTAACCTGTTGCCT (site CTAACCGCTAG)”, 1.67.

In the case of “CTAACCTCTTGGGTTCTAACCTGTTGCTT (site CTAACCTCTAA)”, the “recombinant barcode read abundance (log10)” value stood at 0.505.

With “CTAACCTCTTGGGTTCTAACCTGTTGCTT (site CTAACCTCTCA)”, the “recombinant barcode read abundance (log10)” value worked out at 0.149. In the case of “CTAACCTCTTGGGTTCTAACCTGTTGCTT (site CTAACCTCTGA)”, the “recombinant barcode read abundance (log10)” value was found to be 0.178.

On to “CTAACCTCTTGGGTTCTAACCTGTTGCTT (site CTAACCTCTTA)”, for which the “recombinant barcode read abundance (log10)” value came to 0.

As to “CTAAGAACTTGGGTTCTAACCTGTTGCAT (site CTAAGAACTAA)”, the “recombinant barcode read abundance (log10)” value stood at 0.15. Regarding “CTAAGAACTTGGGTTCTAACCTGTTGCAT (site CTAAGAACTAC)”, the “recombinant barcode read abundance (log10)” value amounted to 0.0166. For “CTAAGAACTTGGGTTCTAACCTGTTGCAT (site CTAAGAACTAG)”, the “recombinant barcode read abundance (log10)” value was found to be 0.188. In the case of “CTAAGAACTTGGGTTCTAACCTGTTGCAT (site CTAAGAACTAT)”, the “recombinant barcode read abundance (log10)” value came to 1.1. To “CTAAGAGCTTGGGTTCTAACCTGTTGCCA (site CTAAGAGCTTG)” belongs 0.483; to “CTAAGAGCTTGGGTTCTAACCTGTTGCCA (site CTAAGCGCTTG)”, 0.109; to “CTAAGAGCTTGGGTTCTAACCTGTTGCCA (site CTAAGGGCTTG)”, 0.0357.

For “CTAAGAGCTTGGGTTCTAACCTGTTGCCA (site CTAAGTGCTTG)”, the “recombinant barcode read abundance (log10)” value came out at 0.116. As to “CTAAGCACTTGGGTTCTAACCTGTTGCCG (site CTAAATACTCG)”, the “recombinant barcode read abundance (log10)” value stood at 0.849. Turning to “CTAAGCACTTGGGTTCTAACCTGTTGCCG (site CTAAGCACTCG)”, the “recombinant barcode read abundance (log10)” value came to 0.671.

In the case of “CTAAGGACTTGGGTTCTAACCTGTTGCTT (site CTAAGGACTAA)”, the “recombinant barcode read abundance (log10)” value came out at 0.0753. To “CTAAGGACTTGGGTTCTAACCTGTTGCTT (site CTAAGGGCTCA)” belongs 0.124; to “CTAAGGGCTTGGGTTCTAACCTGTTGCCA (site CTAAGAGCTTG)”, 0.122. In the case of “CTAAGGGCTTGGGTTCTAACCTGTTGCCA (site CTAAGCGCTTG)”, the “recombinant barcode read abundance (log10)” value turned out to be 0.0306. For “CTAAGGGCTTGGGTTCTAACCTGTTGCCA (site CTAAGGGCTTG)”, the “recombinant barcode read abundance (log10)” value was determined as 0.591. To “CTAAGGGCTTGGGTTCTAACCTGTTGCCA (site CTAAGTGCTTG)” belongs 0.233; to “CTAAGGGCTTGGGTTCTAACCTGTTGCGG (site CTAAGGGCTCC)”, 1.94.

On to “CTAAGGGCTTGGGTTCTAACCTGTTGCGG (site CTTAGGGCTCC)”, for which the “recombinant barcode read abundance (log10)” value is 0.303. With “CTAAGTTCTTGGGTTCTAACCTGTTGCGT (site CTAAGTTCTAC)”, the “recombinant barcode read abundance (log10)” value came out at 1.77.

Turning to “CTAAGTTCTTGGGTTCTAACCTGTTGCGT (site CTACGTACTAC)”, the “recombinant barcode read abundance (log10)” value was 0.0986.

Consider “CTAATAGCTTGGGTTCTAACCTGTTGCCT (site CTAATAGCTAG)”, for which the “recombinant barcode read abundance (log10)” value came out at 0.901. Take “CTAATAGCTTGGGTTCTAACCTGTTGCCT (site CTAATGGCTAG)”: the “recombinant barcode read abundance (log10)” value is 0.0554.

On to “CTAATAGCTTGGGTTCTAACCTGTTGCTA (site CTAATAGCTTA)”, for which the “recombinant barcode read abundance (log10)” value came out at 0.162.

For “CTAATAGCTTGGGTTCTAACCTGTTGCTA (site CTAATATCTTA)”, the “recombinant barcode read abundance (log10)” value came to 0.438. On to “CTAATATCTTGGGTTCTAACCTGTTGCTA (site CTAATAGCTTA)”, for which the “recombinant barcode read abundance (log10)” value was determined as 0.0341. With “CTAATATCTTGGGTTCTAACCTGTTGCTA (site CTAATATCTTA)”, the “recombinant barcode read abundance (log10)” value amounted to 0.512. Regarding “CTAATTGCTTGGGTTCTAACCTGTTGCCT (site CCAATTGCTAG)”, the “recombinant barcode read abundance (log10)” value amounted to 0.201. As for “CTAATTGCTTGGGTTCTAACCTGTTGCCT (site CTAATTGCTAG)”, the “recombinant barcode read abundance (log10)” value was determined as 0.336. As to “CTACAACCTTGGGTTCTAACCTGTTGCTT (site CTACAACCTAA)”, the “recombinant barcode read abundance (log10)” value turned out to be 1.28. Consider “CTACAACCTTGGGTTCTAACCTGTTGCTT (site CTACACCCTAA)”, for which the “recombinant barcode read abundance (log10)” value was determined as 0.0399. As for “CTACAACCTTGGGTTCTAACCTGTTGCTT (site CTACAGCCTAA)”, the “recombinant barcode read abundance (log10)” value was found to be 0.109. “CTACAACCTTGGGTTCTAACCTGTTGCTT (site CTACATCCTAA)”: the “recombinant barcode read abundance (log10)” value amounted to 0. As for “CTACCCTCTTGGGTTCTAACCTGTTGCCT (site CTACCCTCTAG)”, the “recombinant barcode read abundance (log10)” value is 2.4. On to “CTACCCTCTTGGGTTCTAACCTGTTGCCT (site TCTAAGACTGC)”, for which the “recombinant barcode read abundance (log10)” value amounted to 0.122. “CTACGCACTTGGGTTCTAACCTGTTGCTG (site CTACGAACTCA)”: the “recombinant barcode read abundance (log10)” value worked out at 0. Take “CTACGCACTTGGGTTCTAACCTGTTGCTG (site CTACGCACTCA)”: the “recombinant barcode read abundance (log10)” value is 1.68. Turning to “CTACGCACTTGGGTTCTAACCTGTTGCTG (site CTACGGACTCA)”, the “recombinant barcode read abundance (log10)” value turned out to be 0.112. “CTACGCACTTGGGTTCTAACCTGTTGCTG (site CTACGTACTCA)”: the “recombinant barcode read abundance (log10)” value was determined as 0.156.

On to “CTACGCTCTTGGGTTCTAACCTGTTGCAC (site CTACGATCTGT)”, for which the “recombinant barcode read abundance (log10)” value stood at 0.145.

For the sequence “CTACGCTCTTGGGTTCTAACCTGTTGCAC (site CTACGCTCTGT)”, the “recombinant barcode read abundance (log10)” value is 1.78. “CTACGCTCTTGGGTTCTAACCTGTTGCAC (site CTACGGTCTGT)”: the “recombinant barcode read abundance (log10)” value is 0.0577.

With “CTACGCTCTTGGGTTCTAACCTGTTGCAC (site CTACGTTCTGT)”, the “recombinant barcode read abundance (log10)” value was found to be 0.0706. In the case of “CTACGTACTTGGGTTCTAACCTGTTGCGT (site CTAAGTTCTAC)”, the “recombinant barcode read abundance (log10)” value was 0.0986. For the sequence “CTACGTACTTGGGTTCTAACCTGTTGCGT (site CTACGTACTAC)”, the “recombinant barcode read abundance (log10)” value stood at 0.051. Turning to “CTACGTCCTTGGGTTCTAACCTGTTGCTA (site CTACGTCCTAA)”, the “recombinant barcode read abundance (log10)” value is 0.0386. “CTACGTCCTTGGGTTCTAACCTGTTGCTA (site CTACGTCCTCA)”: the “recombinant barcode read abundance (log10)” value was found to be 0.0856. On to “CTACGTCCTTGGGTTCTAACCTGTTGCTA (site CTACGTCCTGA)”, for which the “recombinant barcode read abundance (log10)” value was 0.425. As to “CTACGTCCTTGGGTTCTAACCTGTTGCTA (site CTACGTCCTTA)”, the “recombinant barcode read abundance (log10)” value was determined as 0.795.

Take “CTACTAACTTGGGTTCTAACCTGTTGCGT (site CTACTAACTAA)”: the “recombinant barcode read abundance (log10)” value turned out to be 0.13. Turning to “CTACTAACTTGGGTTCTAACCTGTTGCGT (site CTACTAACTAC)”, the “recombinant barcode read abundance (log10)” value was 1.07. Consider “CTACTAACTTGGGTTCTAACCTGTTGCGT (site CTACTAACTAG)”, for which the “recombinant barcode read abundance (log10)” value is 0.339. As for “CTACTAACTTGGGTTCTAACCTGTTGCGT (site CTACTAACTAT)”, the “recombinant barcode read abundance (log10)” value turned out to be 0.129. For “CTACTATCTTGGGTTCTAACCTGTTGCGC (site CTACTATCTGC)”, the “recombinant barcode read abundance (log10)” value worked out at 0.937. To “CTACTATCTTGGGTTCTAACCTGTTGCGC (site TATAACACTCG)” belongs 0.188; to “CTACTATCTTGGGTTCTAACCTGTTGCGT (site CTACTATCTAC)”, 1.58; to “CTACTATCTTGGGTTCTAACCTGTTGCGT (site TCGAGTGCTCT)”, 0.143. Consider “CTACTTCCTTGGGTTCTAACCTGTTGCGT (site CTACCTCCTAC)”, for which the “recombinant barcode read abundance (log10)” value worked out at 0.215.

On to “CTACTTCCTTGGGTTCTAACCTGTTGCGT (site CTACTTCCTAC)”, for which the “recombinant barcode read abundance (log10)” value worked out at 1.69. For the sequence “CTACTTGCTTGGGTTCTAACCTGTTGCAA (site CTAATTGCTTT)”, the “recombinant barcode read abundance (log10)” value came out at 0.364. The figure for “CTACTTGCTTGGGTTCTAACCTGTTGCAA (site CTACTTGCTTT)” is 0.326. In the case of “CTACTTGCTTGGGTTCTAACCTGTTGCAA (site CTAGTTGCTTT)”, the “recombinant barcode read abundance (log10)” value stood at 0.239.

“CTACTTGCTTGGGTTCTAACCTGTTGCAA (site CTATTTGCTTT)”: the “recombinant barcode read abundance (log10)” value was 0.592. As to “CTAGACACTTGGGTTCTAACCTGTTGCCT (site CTAGACACTAG)”, the “recombinant barcode read abundance (log10)” value came to 0.612.

As to “CTAGACACTTGGGTTCTAACCTGTTGCCT (site CTCGACACTAG)”, the “recombinant barcode read abundance (log10)” value was determined as 0.0911. Take “CTAGACACTTGGGTTCTAACCTGTTGCCT (site CTGGACACTAG)”: the “recombinant barcode read abundance (log10)” value is 0.0451. With “CTAGACACTTGGGTTCTAACCTGTTGCCT (site CTTGACACTAG)”, the “recombinant barcode read abundance (log10)” value stood at 0.512.

The values are drawn from the supplement of paper PMC11208160.
